Laboratory results taken from patent US9187463B2, “Polymorph form of 4-{[4-({[4-(2,2,2-trifluoroethoxy)-1,2-benzisoxazol-3-yl]oxy}methyl)piperidin-1-yl]methyl}-tetrahydro-2H-pyran-4-carboxylic acid” (RAQUALIA PHARMA INC., priority 2011, dated 2015).

Assays:
Type in all cases: physicochemical
[1] = Hygroscopicity study by dynamic vapor sorption (DVS) analysis; conditions: for weight gain %: 25° C., DVS sorption
Protocol: Hygroscopicity study is performed using Surface Measurement Systems DVS-1. The sample is placed on a microbalance in the instrument. After the sample is dried under 0% humidity environment at 25° C., relative humidity is raised to 95% RH at 5% RH increments, maintaining the sample at each step until equilibration had been attained. After completion of the sorption cycle, the sample is dried to 10% RH using the same procedure (desorption cycle). The weight change during the sorption/desorption cycle is monitored, allowing for the hygroscopic nature of the sample to be determined.
In the hygroscopicity study by dynamic vapor sorption (DVS) analysis, Polymorph Form I absorbs less than 0.2 wt % under 90% relative humidity (RH) at 25° C. On the other hand, the white solid disclosed in the prior art WO2006/090224 absorbs 1.2 wt % and 5.5 wt % of water under 85% RH and 90% RH, respectively.

[2] = Solid-state stability study (temperature/humidity chamber, Xenon lamp)
Protocol: Solid-state stability study is performed using Nagano Science Constant temperature/humidity control chamber LH-20-11M, LH-21-11M, LTL-200D3CJ-14 or LTX-01. The sample is placed in the chamber and exposed under 25° C./60% RH, 40° C./75% RH and/or irradiated with a Xenon lamp. The crystalline form, thermal behavior, purity and/or weight change of the resultant sample after the exposure or irradiation are evaluated by XRPD, TG/DTA or DSC, HPLC, microbalance analysis, respectively.

[3] = Thermal polymorph transformation monitored by variable-temperature PXRD; conditions: heating
Protocol: The PXRD analyses are performed using a Rigaku RINT-TTR X-ray powder diffractometer using Cu-Kα radiation. The samples can also be measured under the high/low temperature condition by using the attachment of the variant-temperature sample holder. The instrument is equipped with a fine focus X-ray tube. The tube voltage and amperage are set to 50 kV and 300 mA respectively. The divergence and scattering slits are set at 0.25° and the receiving slit is set at 0.15 mm. Diffracted radiation is detected by a NaI scintillation detector. A theta-two theta continuous scan at 4°/min (step size 0.02°) from 3 to 40 2-Theta° is used. A silicon standard is analyzed to check the machine alignment. Data are collected and analyzed using-Rigaku X-ray system. Samples are prepared for analysis by placing them in an aluminum sample holder that is horizontally rotated at 60 rpm during data acquisition.
Polymorph Form I begins to transform to Polymorph Form II at around 110° C. […]

[4] = 90% relative humidity (RH) at 25° C.

weight gain % ([1]; 75% RH) [%] | weight gain % ([1]; 80% RH) [%] | water absorbed (DVS) ([1]; 85% RH) [wt %] | weight gain % ([1]; 85% RH) [%] | weight gain % ([1]; 90% RH) [%] | water absorbed (DVS) [1, 4] | stability compared with white solid of WO2006/090224 [2] | temperature at which transformation to Polymorph Form II begins [3] | SMILES
0.33 | 0.35 | 1.2 | 1.2 | 5.5 | 5.5 wt % |  |  | O=C(O)C1(CN2CCC(COc3noc4cccc(OCC(F)(F)F)c34)CC2)CCOCC1 [White solid disclosed in the prior art WO2006/090224] [4-{[4-({[4-(2,2,2-Trifluoroethoxy)-1,2-benzisoxazol-3-yl]oxy}methyl)piperidin-1-yl]methyl}-tetrahydro-2H-pyran-4-carboxylic acid]
0.15 | 0.15 |  | 0.15 | 0.18 | less than 0.2 wt % | more stable than white solid | around 110 °C | O=C(O)C1(CN2CCC(COc3noc4cccc(OCC(F)(F)F)c34)CC2)CCOCC1 [Polymorph Form I, 4-{[4-({[4-(2,2,2-trifluoroethoxy)-1,2-benzisoxazol-3-yl]oxy}methyl)piperidin-1-yl]methyl}-tetrahydro-2H-pyran-4-carboxylic acid]
 |  |  |  |  |  | more stable than white solid |  | O=C(O)C1(CN2CCC(COc3noc4cccc(OCC(F)(F)F)c34)CC2)CCOCC1 [Polymorph Form II, 4-{[4-({[4-(2,2,2-trifluoroethoxy)-1,2-benzisoxazol-3-yl]oxy}methyl)piperidin-1-yl]methyl}-tetrahydro-2H-pyran-4-carboxylic acid]
